Measured values taken from BindingDB's records for doi:10.1016/j.ejmech.2021.113298 (Chung-Ang University, 2021).

assay: Inhibition of CSF1R in mouse MNFS-60 cells assessed as reduction in CSF-induced cell viability after 48 hrs by Ez-cytox reagent based assay

| Compound | IC50 |
| --- | --- |
| FC(F)(F)c1ccc(CNc2ccc(Cc3c[nH]c4ncc(Cl)cc34)cn2)cn1 | 14 nM |
| CCN1CCN(Cc2ccc(C(=O)Nc3ccc(C)c(NCc4cnc5cccnn45)c3)cc2C(F)(F)F)CC1 | 660 nM |
| CCN1CCN(Cc2ccc(C(=O)Nc3ccc(C)c(NCc4cnc5ccc(OC)nn45)c3)cc2C(F)(F)F)CC1 | 406 nM |
| CCN1CCN(Cc2ccc(NC(=O)c3ccc(C)c(NC(=O)c4cnc5cccnn45)c3)cc2C(F)(F)F)CC1 | 122 nM |
| CCN1CCN(Cc2ccc(C(=O)Nc3ccc(C)c(NC(=O)c4cnc5cccnn45)c3)cc2C(F)(F)F)CC1 | 178 nM |
| CCN1CCN(Cc2ccc(C(=O)Nc3ccc(C)c(NC(=O)c4cnnc5ccccc45)c3)cc2C(F)(F)F)CC1 | 1600 nM |
| CCN1CCN(Cc2ccc(C(=O)Nc3ccc(C)c(NC(=O)c4cnc5ccccn45)c3)cc2C(F)(F)F)CC1 | 149 nM |
| CCN1CCN(Cc2ccc(C(=O)Nc3ccc(C)c(NC(=O)c4cnn5ccccc45)c3)cc2C(F)(F)F)CC1 | 91 nM |
| CCN1CCN(Cc2ccc(C(=O)Nc3ccc(C)c(NC(=O)c4cnc5ncccn45)c3)cc2C(F)(F)F)CC1 | 4170 nM |
| CCN1CCN(Cc2ccc(C(=O)Nc3ccc(C)c(NC(=O)c4n[nH]c5ccccc45)c3)cc2C(F)(F)F)CC1 | 1580 nM |
| CCN1CCN(Cc2ccc(C(=O)Nc3ccc(C)c(NC(=O)c4n[nH]c5ncccc45)c3)cc2C(F)(F)F)CC1 | 254 nM |
| CCN1CCN(Cc2ccc(C(=O)Nc3ccc(C)c(NC(=O)c4cc[nH]n4)c3)cc2C(F)(F)F)CC1 | 4720 nM |
| CCN1CCN(Cc2ccc(C(=O)Nc3ccc(C)c(NC(=O)c4ccn(C)n4)c3)cc2C(F)(F)F)CC1 | 5150 nM |
| CCN1CCN(Cc2ccc(C(=O)Nc3ccc(C)c(NC(=O)c4c[nH]cn4)c3)cc2C(F)(F)F)CC1 | 5430 nM |
| CCN1CCN(Cc2ccc(C(=O)Nc3ccc(C)c(NC(=O)c4ncc[nH]4)c3)cc2C(F)(F)F)CC1 | 5780 nM |
| Cc1ccc(NC(=O)c2ccc(C(F)(F)F)nc2)cc1NC(=O)c1cnc2cccnn12 | > 10000 nM |
| Cc1ccc(NC(=O)c2ccc(C(F)(F)F)nc2)cc1NC(=O)c1cnc2ccccn12 | 25 nM |
| Cc1ccc(NC(=O)c2ccc(C(F)(F)F)nc2)cc1NC(=O)c1cnn2ccccc12 | 27 nM |
| Cc1ccc(NCc2ccc(C(F)(F)F)nc2)cc1NC(=O)c1cnc2cccnn12 | > 10000 nM |
| Cc1ccc(NCc2ccc(C(F)(F)F)nc2)cc1NC(=O)c1cnc2ccccn12 | 3150 nM |
| Cc1ccc(NCc2ccc(C(F)(F)F)nc2)cc1NC(=O)c1cnn2ccccc12 | 5770 nM |
| Cc1cn(-c2cc(NC(=O)c3ccc(C)c(NC(=O)c4cnc5cccnn45)c3)cc(C(F)(F)F)c2)cn1 | 1820 nM |
| Cc1cn(-c2cc(NC(=O)c3ccc(C)c(NC(=O)c4cnc5ccccn45)c3)cc(C(F)(F)F)c2)cn1 | 486 nM |
| CNC(=O)c1cc(Oc2ccc3nc(N[C@H]4CCCC[C@H]4O)sc3c2)ccn1 | 245 nM |
| Cc1cn(-c2cc(NC(=O)c3ccc(C)c(Nc4nccc(-c5cccnc5)n4)c3)cc(C(F)(F)F)c2)cn1 [AMN 107] | 534 nM |
